The values below come from US8895695B2, “Template-fixed beta-hairpin peptidomimetics with CXCR4 antagonizing activity” (priority 2003, dated 2014).

Molecules are shown by their SMILES. Numbered stars: 1 amine (or outer) side, 2 acyl side, 3 side chain; on linkers, the order of the positions; unused ones are H or OH. Bridge positions count the residues as written; N and C are the ends. Square brackets hold non-standard residues; d marks the D form. Peptide text beside a SMILES is read from it. X1 = CC(C)CN(CCC[C@H](N[*:1])C(=O)[*:2])CC(C)C; 2Nal = N[C@@H](Cc1ccc2ccccc2c1)C(=O)O; Cit = NC(=O)NCCC[C@H](N)C(=O)O; Dab = NCC[C@H](N)C(=O)O

Series [1] deals with human red blood cells (hRBC). The experiment in a line: Hemolysis. The format is cell-based. In outline:
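Washed fresh human erythrocytes (20% v/v, about 0.9×10^9 cells/ml final) incubated with peptide at 100 μM for 1 h at 37° C. Supernatant diluted 20-fold and OD540 read. Percent hemolysis relative to 0.1% Triton X-100 in H2O (100%), with PBS alone as 0%.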

Series [2] in a line: in vitro. The conditions noted are these: human; for CC50 at 48 h: HELA cells (Acc57).
The target in series [3] is T1, CXCR4 (Homo sapiens, UniProt P61073). The experiment in a line: Ca2+-assay method 1: CXCR4-antagonizing activity. In kind it is cell-based. On the set-up: expressed in transfected cells. The conditions noted are these: method 1 (Ex. 1-53), CXCR4 transfected pre-B cells, Fura-2; read-out: IC50 (nM) Ca^2+ assay. As for the experimental part:
2.2. Ca^2+-Assay: CXCR4-Antagonizing Activity of the Peptides.
The cells were washed free from Fura-2-AM with a platelet centrifuge and resuspended in 800 μl MSB containing 5 mM D-Glucose. The peptides to be administered were diluted to a 100 fold end concentration in MSB/0.2% PPL, and 8 μl were injected. […] Measurements were done under continuous stirring at 37° C. The signal intension was calibrated with 3 mM CaCl2/[…] lonomycin (maximal fura-2-acetoxymethylester saturation) and 10 μM MnCl2 (minimal Fura-2-acetoxymethylester saturation) and [Ca^2+]i-changes are presented in % fora-2-acetoxymethylester saturation. The rate of [Ca^2+]i-changes was calculated on the basis of the initial [Ca^2+]i-changes and plotted in dependence of chemokine concentration to obtain a sigmoidal curve and to determine the IC50 values.
Osmolarity: 310 mOsm adjusted with NaOH or HCl, adjusted with H2O or PBS.
MSB plus: 5 mM D-glucose in MSB (50 mg/50 mL).
Fura 2-acetoxymethylester: 1 mM stock solution in dimethylsulfoxide.

For series [4], the target named is T1, CXCR4. Nature of the series: Ca2+-assay method 2 (Flexstation, SDF-1 induced calcium mobilization). The format is cell-based. On the set-up: expressed in transfected cells; host or cells: mouse pre-B cell line 300-19. As to conditions: method 2 (Ex. 54-160), mouse pre-B cell line 300-19 with human CXCR4, 10 nM SDF-1; read-out: IC50 (nM) Ca^2+ assay.
A short description of series [5]: in vitro. The format is in vitro ADME. As to conditions: plasma. The method, then:
405 μl of plasma/albumin solution were placed in a polypropylene (PP) tube and spiked with 45 μl of compound from a 100 μM solution B, derived from 135 μl of PBS and 15 μl of 1 mM peptide in PBS, pH 7.4. 150 μl aliquots were transferred into individual wells of the 10 kDa filter plate (Millipore MAPPB 1010 Biomax membrane). For “0 minutes controls”: 270 μl of PBS were placed in a PP tube and 30 μl of stock solution B was added and vortexed. 150 μl of control solution was placed into one well of the filter plate and serves as “filtered control”.
Further 150 μl of control solution were placed directly into a receiver well (reserved for filtrate) and serve as “not-filtered control”. The entire plate including evaporation lid was incubated for 60 min at 37° C. Plasma samples (rat plasma: Harlan Sera lab UK, human plasma: Blutspendezentrum Zürich) were centrifuged at least for 2 h at 4300 rpm (3500 g) and 15° C. in order to yield 100 μl filtrate. For “serum albumin”-samples (freshly prepared human albumin: Sigma A-4327, rat albumin: Sigma A-6272, all at 40 mg/ml concentration in PBS) approximately 1 hour of centrifugation is sufficient. The filtrates in the receiver PP plate were analysed by LC/MS as followes: Column: Jupiter C18 (Phenomenex), mobile phases: (A) 0.1% formic acid in water and (B) acetonitrile, gradient: 5%-100% (B) in 2 minutes, electrospray ionization, MRM detection (triple quadrupole). The peak areas were determined and triplicate values are averaged. The binding is expressed in percent of the (filtered and not-filtered time point 0 min) control 1 and 2 by: 100−(100*T60/T0). The average from these values is then calculated (see ref. 9 below).
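For CC50 in this document: MTT reduction read as absorbance at 595 nm, blank-corrected and expressed as percent growth relative to the time-zero cell reading, triplicate wells per concentration.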
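For GI50 in this document: MTT reduction read as absorbance at 595 nm, blank-corrected and expressed as percent growth relative to the time-zero cell reading, triplicate wells per concentration.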

T1 sequence (P61073 whole entry): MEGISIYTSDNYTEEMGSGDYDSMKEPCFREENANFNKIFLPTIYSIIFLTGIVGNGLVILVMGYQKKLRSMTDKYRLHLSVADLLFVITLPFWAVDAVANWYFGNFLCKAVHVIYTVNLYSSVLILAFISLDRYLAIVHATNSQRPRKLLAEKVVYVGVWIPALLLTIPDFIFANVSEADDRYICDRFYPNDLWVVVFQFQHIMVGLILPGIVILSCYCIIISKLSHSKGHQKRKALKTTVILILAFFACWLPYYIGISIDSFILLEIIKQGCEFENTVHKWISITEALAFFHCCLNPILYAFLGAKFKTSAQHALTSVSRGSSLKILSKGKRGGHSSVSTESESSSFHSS

A word on the CC50: it is the concentration that lowers cell viability or growth by half. A word on the IC50: it is the concentration that inhibits the measured activity by half. In the case of `CC(C)[C@@H]1NC(=O)[C@H](CCCNC(N)=O)NC(=O)[C@H](CCCNC(=N)N)NC(=O)[C@H](Cc2ccc(O)cc2)NC(=O)[C@@H]2CCCN2C(=O)[C@H]2CCCN2C(=O)[C@H](CCCCN)NC(=O)[C@H](CCCNC(N)=O)NC(=O)[C@H](Cc2ccc(O)cc2)NC(=O)[C@H](Cc2ccccc2)NC(=O)[C@H](Cc2ccc3ccccc3c2)NC(=O)[C@H](CCCNC(=N)N)NC(=O)[C@@H](CCCNC(=N)N)NC(=O)[C@H](CCCNC(=N)N)NC1=O` [Ex. 1] (cyclo(YR[Cit]VR[dR]R[2Nal]FY[Cit]K[dP]P)), the Hemolysis at 100 μM in series [1] is 1.6%. The CC50 at 48 h in the series “in vitro [2]” was found to be 82 µM. The IC50 at CXCR4 [3] is 2280 nM.
The matching figures for `CC(C)[C@@H]1NC(=O)[C@H](CCCNC(N)=O)NC(=O)[C@H](CCCNC(=N)N)NC(=O)[C@H](Cc2ccc(O)cc2)NC(=O)[C@@H]2CCCN2C(=O)[C@H]2CCCN2C(=O)[C@H](CCCCN)NC(=O)[C@H](CCCNC(N)=O)NC(=O)[C@H](Cc2ccc(O)cc2)NC(=O)[C@H](C(C)C)NC(=O)[C@H](Cc2ccc3ccccc3c2)NC(=O)[C@H](CCCNC(=N)N)NC(=O)[C@H](CCCNC(=N)N)NC(=O)[C@H](CCCNC(=N)N)NC1=O` [Ex. 6] (cyclo(YR[Cit]VRRR[2Nal]VY[Cit]K[dP]P)): 0.6%, 103 µM and 1930 nM.
What is called half-life is how long it takes for the measured level to halve. A low value points to fast loss. In general, GI50 refers to the concentration at which growth is held to half of that of the control. As to `CC(C)CN(CCC[C@@H]1NC(=O)[C@H]2CCCN2C(=O)CNC(=O)[C@H](CCCNC(=N)N)NC(=O)[C@@H]2CSSC[C@H](NC(=O)[C@H](Cc3ccc4ccccc4c3)NC(=O)[C@H](CCCNC(=N)N)NC1=O)C(=O)N[C@@H](Cc1ccc(O)cc1)C(=O)N[C@@H](CCCNC(N)=O)C(=O)N[C@@H](CCCCN)C(=O)N1CCC[C@@H]1C(=O)N1CCC[C@H]1C(=O)N[C@@H](Cc1ccc(O)cc1)C(=O)N[C@@H](CCCNC(=N)N)C(=O)N[C@@H](CCCNC(N)=O)C(=O)N2)CC(C)C` [Ex. 124] (cyclo(YR[Cit]CRG[dP][X1]R[2Nal]CY[Cit]K[dP]P); disulfide 4-11), on CXCR4 [4], the IC50 was 5.9 nM. The half-life at 10 μM in “in vitro [5]” (human) and in the series “in vitro [5]” (rat) was above 5 h each time. In series [1], this compound had a Hemolysis at 100 μM of 0%. The GI50 at 48 h in “in vitro [2]” was 21 µM.
Turning to `N=C(N)NCCC[C@@H]1NC(=O)[C@H](CO)NC(=O)[C@H](CCCNC(N)=O)NC(=O)[C@H](CCCNC(=N)N)NC(=O)[C@H](Cc2ccc(O)cc2)NC(=O)[C@@H]2CCCN2C(=O)[C@H]2CCCN2C(=O)[C@H](CCCCN)NC(=O)[C@H](CCCNC(N)=O)NC(=O)[C@H](Cc2ccc(O)cc2)NC(=O)[C@H](CC(N)=O)NC(=O)[C@H](Cc2c[nH]c3ccccc23)NC(=O)[C@H](CCCNC(=N)N)NC(=O)[C@H](CCCNC(=N)N)NC(=O)[C@H]2CCCN2C(=O)CNC1=O` [Ex. 151] (cyclo(YR[Cit]SRG[dP]RRWNY[Cit]K[dP]P)), the half-inhibitory concentration (IC50) at CXCR4 [4] was determined as 4.2 nM. The values for the half-life at 10 μM in the series “in vitro [5]” (human) and in the series “in vitro [5]” (rat) were 1.48 h and 1.18 h, respectively. For the same compound, in series [1], the Hemolysis at 100 μM was 0.9%. Moreover, growth in the series “in vitro [2]” was halved (GI50 at 48 h) at 83 µM.
For `N=C(N)NCCC[C@@H]1NC(=O)[C@@H]2CCNC(=O)CC[C@H](NC(=O)[C@H](Cc3c[nH]c4ccccc34)NC(=O)[C@H](CCCNC(=N)N)NC(=O)[C@H](CCCNC(=N)N)NC(=O)[C@H]3CCCN3C(=O)CNC1=O)C(=O)N[C@@H](Cc1ccc(O)cc1)C(=O)N[C@@H](CCCNC(N)=O)C(=O)N[C@@H](CCCCN)C(=O)N1CCC[C@@H]1C(=O)N1CCC[C@H]1C(=O)N[C@@H](Cc1ccc(O)cc1)C(=O)N[C@@H](CCCNC(=N)N)C(=O)N[C@@H](CCCNC(N)=O)C(=O)N2` [Ex. 152] (cyclo(YR[Cit][Dab]RG[dP]RRWEY[Cit]K[dP]P); lactam 4-11), in that order: 4.2 nM, 0.383 h, 1.43 h, 0% and 46 µM.
In series [1], `CC(C)[C@@H]1NC(=O)[C@H](Cc2ccc3ccccc3c2)NC(=O)[C@H](CCCNC(=N)N)NC(=O)[C@@H](CCCNC(=N)N)NC(=O)[C@H](CCCNC(=N)N)NC(=O)[C@H](C(C)C)NC(=O)[C@H](CCCNC(N)=O)NC(=O)[C@H](CCCNC(=N)N)NC(=O)[C@H](Cc2ccc(O)cc2)NC(=O)[C@@H]2CCCN2C(=O)[C@H]2CCCN2C(=O)[C@H](CCCCN)NC(=O)[C@H](CCCNC(N)=O)NC(=O)[C@H](Cc2ccc(O)cc2)NC1=O` [compound 2] (cyclo(YR[Cit]VR[dR]R[2Nal]VY[Cit]K[dP]P)) displayed a Hemolysis at 100 μM of 0.9%. The same compound came in with a CC50 at 48 h in “in vitro [2]” of 97 µM. The IC50 on CXCR4 [3] came to 2830 nM.
`N=C(N)NCCC[C@@H]1NC(=O)[C@H](CCCNC(=N)N)NC(=O)[C@H](Cc2ccccc2)NC(=O)[C@H](CCCNC(N)=O)NC(=O)[C@H](CCCNC(=N)N)NC(=O)[C@H](Cc2ccc(O)cc2)NC(=O)[C@@H]2CCCN2C(=O)[C@H]2CCCN2C(=O)[C@H](CCCCN)NC(=O)[C@H](CCCNC(N)=O)NC(=O)[C@H](Cc2ccc(O)cc2)NC(=O)[C@H](Cc2ccccc2)NC(=O)[C@H](Cc2ccc3ccccc3c2)NC(=O)[C@H](CCCNC(=N)N)NC1=O` [compound 3] (cyclo(YR[Cit]FRRR[2Nal]FY[Cit]K[dP]P)) yielded a Hemolysis at 100 μM in series [1] of 1.7%. Also, the cytotoxic concentration (CC50) at 48 h in the series “in vitro [2]” was found to be 126 µM. For the same compound, at CXCR4 [3], the IC50 amounted to 1000 nM.
For `CC(C)[C@@H]1NC(=O)[C@H](CCCNC(N)=O)NC(=O)[C@H](CCCNC(=N)N)NC(=O)[C@H](Cc2ccc(O)cc2)NC(=O)[C@@H]2CCCN2C(=O)[C@H]2CCCN2C(=O)[C@H](CCCCN)NC(=O)[C@H](CCCNC(N)=O)NC(=O)[C@H](Cc2ccc(O)cc2)NC(=O)[C@H](Cc2ccccc2)NC(=O)[C@H](Cc2ccc3ccccc3c2)NC(=O)[C@H](CCCNC(=N)N)NC(=O)[C@H](CCCNC(=N)N)NC(=O)[C@H](CCCNC(=N)N)NC1=O` [compound 4] (cyclo(YR[Cit]VRRR[2Nal]FY[Cit]K[dP]P)), in that order: 0.7%, 191 µM and 2540 nM.
In series [1], `CC(C)[C@@H]1NC(=O)[C@H](Cc2ccc3ccccc3c2)NC(=O)[C@H](CCCNC(=N)N)NC(=O)[C@H](CCCNC(=N)N)NC(=O)[C@@H]2CCCN2C(=O)[C@H](CCCNC(N)=O)NC(=O)[C@H](CCCNC(=N)N)NC(=O)[C@H](Cc2ccccc2)NC(=O)[C@H](CCCNC(N)=O)NC(=O)[C@H](CCCNC(=N)N)NC(=O)[C@H](Cc2ccc(O)cc2)NC(=O)[C@@H]2CCCN2C(=O)[C@H]2CCCN2C(=O)[C@H](CCCCN)NC(=O)[C@H](CCCNC(N)=O)NC(=O)[C@H](Cc2ccc(O)cc2)NC1=O` [compound 20] (cyclo(YR[Cit]FR[Cit]PRR[2Nal]VY[Cit]K[dP]P)) came in with a Hemolysis at 100 μM of 0.2%. The compound further returned a CC50 at 48 h in the series “in vitro [2]” of 85 µM. Moreover, at CXCR4 [3], the IC50 worked out at 3730 nM.
The matching figures for `CC(C)[C@@H]1NC(=O)[C@H](Cc2ccc3ccccc3c2)NC(=O)[C@H](CCCNC(=N)N)NC(=O)[C@H](CCCNC(=N)N)NC(=O)[C@H]2CCCN2C(=O)[C@H](C(C)C)NC(=O)[C@H](CCCNC(=N)N)NC(=O)[C@H](Cc2ccccc2)NC(=O)[C@H](CCCNC(N)=O)NC(=O)[C@H](CCCNC(=N)N)NC(=O)[C@H](Cc2ccc(O)cc2)NC(=O)[C@@H]2CCCN2C(=O)[C@H]2CCCN2C(=O)[C@H](CCCCN)NC(=O)[C@H](CCCNC(N)=O)NC(=O)[C@H](Cc2ccc(O)cc2)NC1=O` [compound 21] (cyclo(YR[Cit]FRV[dP]RR[2Nal]VY[Cit]K[dP]P)): 0.6%, 114 µM and 550 nM.
